Assays:
[1] = target: T1, Solute carrier organic anion transporter family member 1B1 (Homo sapiens, UniProt Q9Y6L6); conditions: chinese hamster, cho, 10 µM
T1 sequence (Q9Y6L6 whole entry): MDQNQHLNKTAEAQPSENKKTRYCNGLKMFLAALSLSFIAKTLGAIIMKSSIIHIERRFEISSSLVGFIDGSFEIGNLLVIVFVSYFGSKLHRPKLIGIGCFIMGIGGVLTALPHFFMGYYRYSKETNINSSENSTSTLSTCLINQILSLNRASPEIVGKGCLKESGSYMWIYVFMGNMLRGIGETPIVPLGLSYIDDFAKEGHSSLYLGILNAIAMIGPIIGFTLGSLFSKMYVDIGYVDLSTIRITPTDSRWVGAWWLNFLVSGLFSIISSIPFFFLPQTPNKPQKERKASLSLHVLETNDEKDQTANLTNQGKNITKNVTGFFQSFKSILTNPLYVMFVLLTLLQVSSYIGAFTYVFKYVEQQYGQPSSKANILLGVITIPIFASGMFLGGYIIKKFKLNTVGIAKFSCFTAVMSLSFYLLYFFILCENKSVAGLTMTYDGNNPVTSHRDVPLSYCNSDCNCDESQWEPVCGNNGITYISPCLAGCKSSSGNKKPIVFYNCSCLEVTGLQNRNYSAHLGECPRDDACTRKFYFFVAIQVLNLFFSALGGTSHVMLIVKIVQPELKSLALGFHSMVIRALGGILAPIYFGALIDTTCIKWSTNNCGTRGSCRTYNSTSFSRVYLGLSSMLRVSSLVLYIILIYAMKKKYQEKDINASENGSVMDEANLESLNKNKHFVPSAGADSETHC

[2] = target: T2, Solute carrier organic anion transporter family member 1B3 (Homo sapiens, UniProt Q9NPD5); conditions: chinese hamster, cho, 10 µM
T2 sequence (Q9NPD5 whole entry): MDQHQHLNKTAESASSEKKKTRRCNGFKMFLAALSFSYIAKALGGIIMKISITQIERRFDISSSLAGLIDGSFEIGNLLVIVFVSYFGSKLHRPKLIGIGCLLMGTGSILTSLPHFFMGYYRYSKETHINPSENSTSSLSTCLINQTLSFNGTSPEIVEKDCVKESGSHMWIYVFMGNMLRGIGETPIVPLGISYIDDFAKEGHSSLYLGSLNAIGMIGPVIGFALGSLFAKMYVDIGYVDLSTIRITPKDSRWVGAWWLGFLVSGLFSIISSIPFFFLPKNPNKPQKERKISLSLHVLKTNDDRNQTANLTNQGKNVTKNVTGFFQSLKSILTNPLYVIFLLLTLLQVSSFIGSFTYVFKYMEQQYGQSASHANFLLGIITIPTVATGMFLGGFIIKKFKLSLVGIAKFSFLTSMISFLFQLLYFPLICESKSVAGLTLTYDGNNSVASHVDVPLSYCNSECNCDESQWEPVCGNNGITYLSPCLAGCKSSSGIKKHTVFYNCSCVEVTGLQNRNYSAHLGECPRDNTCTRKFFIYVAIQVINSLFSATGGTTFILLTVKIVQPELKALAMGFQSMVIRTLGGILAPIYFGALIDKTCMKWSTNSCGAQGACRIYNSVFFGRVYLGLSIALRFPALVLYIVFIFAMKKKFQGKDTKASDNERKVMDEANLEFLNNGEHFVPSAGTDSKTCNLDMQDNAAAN

Row | SMILES | residual activity [1] [%] | residual activity [2] [%]
1 | CN[C@@H]1[C@H](O[C@H]2[C@H](O[C@H]3[C@H](O)[C@@H](O)[C@H](N=C(N)N)[C@@H](O)[C@@H]3N=C(N)N)O[C@@H](C)[C@]2(O)C=O)O[C@@H](CO)[C@H](O)[C@H]1O.CN[C@@H]1[C@H](O[C@H]2[C@H](O[C@H]3[C@H](O)[C@@H](O)[C@H](N=C(N)N)[C@@H](O)[C@@H]3N=C(N)N)O[C@@H](C)[C@]2(O)C=O)O[C@@H](CO)[C@H](O)[C@H]1O.O=S(=O)(O)O.O=S(=O)(O)O.O=S(=O)(O)O [STREPTOMYCIN SULFATE] | 87.18 | 109.2
2 | CO[C@H]1[C@H](O)[C@H](O[C@H]2CC[C@@]3(C)[C@H](CC[C@@H]4[C@@H]3CC[C@]3(C)[C@@H](C5=CC(=O)OC5)CC[C@]43O)C2)O[C@@H](C)[C@@H]1O [NERIIFOLIN] | 95.6 | 148.8
3 | CC[C@@]1(O)C[C@H](O)c2c(cc3c(c2O)C(=O)c2c(O)ccc(O)c2C3=O)[C@H]1C(=O)OC [RUTILANTINONE] | 74.91 | 99.74
4 | O=[N+]([O-])O[C@H]1CO[C@H]2[C@@H]1OC[C@H]2O[N+](=O)[O-] [ISOSORBIDE DINITRATE] | 86.27 | 114.2
5 | CNc1ccc(C(=O)CC(O)CCC(C)C2OC(=O)CC(O)CC(=O)CC(O)CC(O)CC(O)CC(O)CC3(O)CC(O)C(C(=O)OC)C(CC(O[C@@H]4O[C@H](C)[C@@H](O)[C@H](N)[C@@H]4O)/C=C/C=C/C=C/C=C/C=C/C=C/C=C/C2C)O3)cc1.COC(=O)C1C(O)CC2(O)CC(O)CC(O)CC(O)CC(O)CC(=O)CC(O)CC(=O)OC(C(C)CCC(O)CC(=O)c3ccc(N)cc3)C(C)/C=C/C=C/C=C/C=C/C=C/C=C/C=C/C(O[C@@H]3O[C@H](C)[C@@H](O)[C@H](N)[C@@H]3O)CC1O2 (some centres undefined) [MEPARTRICIN] | 95.55 | 86.4
6 | CNC(=O)Oc1ccc2c(c1)[C@]1(C)CCN(C)[C@@H]1N2C.O=C(O)c1ccccc1O [PHYSOSTIGMINE SALICYLATE] | 116 | 110.8
7 | COc1c2c(c(CC=C(C)C)c3oc(=O)c(-c4ccc(O)cc4)c(O)c13)OC(C)(C)C=C2 [LONCHOCARPIC ACID] | 26.49 | 36.3
8 | CSc1nc(NC(C)C)nc(NC(C)C)n1 [PROMETRYN] | 175.4 | 86.3
9 | Clc1ccc(COC(Cn2ccnc2)c2ccc(Cl)cc2Cl)c(Cl)c1.O=[N+]([O-])O (centres undefined) [MICONAZOLE NITRATE] | 124.1 | 119.9
10 | CCCCCCCCCc1ccc(O)cc1 [4-NONYLPHENOL] | 140.8 | 184.2
11 | CC[C@@]1(O)C(=O)OCc2c1cc1n(c2=O)Cc2cc3ccccc3nc2-1 [CAMPTOTHECIN] | 74.81 | 107.3
12 | C[C@]12CC[C@@H]3c4ccc(OCc5ccccc5)cc4CC[C@H]3[C@@H]1C[C@@H](O)[C@@H]2O | 100 | 102.7
13 | CC1CCC(NC(=O)N(CCCl)N=O)CC1 (centres undefined) [SEMUSTINE] | 101.5 | 100.5
14 | CC(=O)CC1CCCCN1.Cl (centres undefined) [PELLETIERINE HYDROCHLORIDE] | 75.96 | 95.02
15 | CNC(=O)Oc1ccc2c(c1)[C@]1(C)CCN(C)[C@@H]1N2C.CNC(=O)Oc1ccc2c(c1)[C@]1(C)CCN(C)[C@@H]1N2C.O=S(=O)(O)O [PHYSOSTIGMINE SULFATE] | 101.7 | 99.93
16 | C[C@H]1CC[C@]2(NC1)O[C@H]1C[C@H]3[C@@H]4CC[C@H]5C[C@@H](O[C@@H]6O[C@H](CO)[C@H](O[C@@H]7O[C@H](CO)[C@@H](O)[C@H](O[C@@H]8OC[C@@H](O)[C@H](O)[C@H]8O)[C@H]7O[C@@H]7O[C@H](CO)[C@@H](O)[C@H](O)[C@H]7O)[C@H](O)[C@H]6O)CC[C@]5(C)[C@H]4CC[C@]3(C)[C@H]1[C@@H]2C [TOMATINE] | 96.72 | 100.3
17 | C[C@]12CC[C@H]3C(=CCc4cc(O)ccc43)[C@@H]1CCC2=O [EQUILIN] | 88.55 | 96.05

Next, values leading:

Row | residual activity [1] [%] | residual activity [2] [%] | SMILES
18 | 121.4 | 118.8 | OC[C@@H](O)C(O)[C@H](O)CO
19 | 107.4 | 93.02 | Cl.O=C1NCC2(CCN(CCc3ccccc3)CC2)O1 [FENSPIRIDE HYDROCHLORIDE]
20 | 116 | 88.95 | CCCC(=O)Nc1ncnc2c1ncn2[C@@H]1O[C@@H]2COP(=O)(O)O[C@H]2[C@H]1OC(=O)CCC [BUCLADESINE]
21 | 115.8 | 101.5 | Clc1ccc2c(c1)C(N1CCNCC1)=Nc1ccccc1O2 [AMOXAPINE]
22 | 98.02 | 106.4 | Cc1c(C(N)=O)cc([N+](=O)[O-])cc1[N+](=O)[O-] [DINITOLMIDE]
23 | 95.86 | 116.6 | COc1ccc(C[C@H](N)C(=O)N[C@H]2[C@@H](O)[C@H](n3cnc4c(N(C)C)ncnc43)O[C@@H]2CO)cc1.Cl.Cl [PUROMYCIN HYDROCHLORIDE]
24 | 86.36 | 90.89 | CC(=O)[C@H]1CC[C@H]2[C@@H]3C[C@H](C)C4=CC(=O)CC[C@]4(C)[C@H]3[C@@H](O)C[C@]12C [MEDRYSONE]
25 | 93.55 | 101.4 | CC(CCc1ccccc1)NCC(O)c1ccc(O)c(C(N)=O)c1.Cl (centres undefined) [LABETALOL HYDROCHLORIDE]
26 | 77.78 | 102.1 | C1CNCCN1 [PIPERAZINE]
27 | 159.2 | 124.9 | CCCCOC(=O)c1ccc(N)cc1 [BUTAMBEN]
28 | 79.64 | 113.6 | COc1ccc([C@H]2Oc3cc(OC)cc(OC)c3C[C@H]2O)cc1 [EPIAFZELECHIN TRIMETHYL ETHER]
29 | 134.1 | 107.3 | C=CCCCCCCCCCCC/C=C/C(O)COC(C)=O (centres undefined) [DEHYDROAVOCATIN-1-ACETATE]
30 | 29.82 | 47.58 | C=C1CCC(C2CC(=O)OC2=O)C(=O)CCC2C1CC2(C)C (centres undefined) [2-METHYLENE-5-(2,5-DIOXOTETRAHYDROFURAN-3-YL)-6-OXO--10,10-DIMETHYLBICYCLO[7: 2: 0]UNDECANE]
31 | 91.81 | 91.61 | CC1=NS(=O)(=O)c2cc(Cl)ccc2N1 [DIAZOXIDE]
32 | 14.59 | 94.52 | COc1c(O)cc2c(c1O)[C@@H]1O[C@H](CO)[C@@H](O)[C@H](O)[C@H]1OC2=O [BERGENIN]
33 | 70.34 | 105.1 | CC(=O)Oc1ccc2c(c1C(C)C)CC[C@H]1C(C)(C)CCC[C@]21C
34 | 75.5 | 82.08 | Cc1ccc(C(C)C)c(O)c1C(=O)O [ORTHOTHYMOTINIC ACID]
35 | 87.31 | 99.95 | COc1cc2ccc(=O)oc2cc1O [SCOPOLETIN]
36 | 104.4 | 104.7 | Nc1nc(=O)c2[nH]c(=O)cnc2[nH]1 [XANTHOPTERIN]
37 | 103.4 | 94.35 | CCCCOc1cc(C(=O)NCCN(CC)CC)c2ccccc2n1.Cl [DIBUCAINE HYDROCHLORIDE]

Reference: ChEMBL document CHEMBL3039007, “Structure-based identification of OATP1B1/3 inhibitors” (Mol Pharmacol, 2013)
